One data set deals with T1, human sGC (Homo sapiens, UniProt Q02153).
T1 construct: expressed in transfected cells; host or cells: CHO-K1 cells (Chinese hamster ovary), stably co-expressing mouse CNGA2 as the calcium read-out channel
T1 sequence (Q02153 1-619): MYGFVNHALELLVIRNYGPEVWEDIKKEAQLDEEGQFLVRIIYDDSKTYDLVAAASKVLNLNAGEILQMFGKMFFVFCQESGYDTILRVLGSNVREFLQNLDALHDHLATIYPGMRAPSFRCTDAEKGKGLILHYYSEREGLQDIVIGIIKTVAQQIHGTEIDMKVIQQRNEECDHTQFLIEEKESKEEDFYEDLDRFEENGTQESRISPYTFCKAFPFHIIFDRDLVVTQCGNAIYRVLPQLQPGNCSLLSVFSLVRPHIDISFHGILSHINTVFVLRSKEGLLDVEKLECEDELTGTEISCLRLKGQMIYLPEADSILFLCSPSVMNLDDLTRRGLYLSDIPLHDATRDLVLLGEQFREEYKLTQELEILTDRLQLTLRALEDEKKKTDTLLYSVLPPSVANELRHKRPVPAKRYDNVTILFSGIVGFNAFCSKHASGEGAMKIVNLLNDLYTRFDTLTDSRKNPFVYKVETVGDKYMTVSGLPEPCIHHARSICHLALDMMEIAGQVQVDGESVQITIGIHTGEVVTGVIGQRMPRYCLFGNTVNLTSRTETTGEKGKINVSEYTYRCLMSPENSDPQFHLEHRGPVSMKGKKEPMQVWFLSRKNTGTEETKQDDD
T1 sequence (Q02108 1-690 partner): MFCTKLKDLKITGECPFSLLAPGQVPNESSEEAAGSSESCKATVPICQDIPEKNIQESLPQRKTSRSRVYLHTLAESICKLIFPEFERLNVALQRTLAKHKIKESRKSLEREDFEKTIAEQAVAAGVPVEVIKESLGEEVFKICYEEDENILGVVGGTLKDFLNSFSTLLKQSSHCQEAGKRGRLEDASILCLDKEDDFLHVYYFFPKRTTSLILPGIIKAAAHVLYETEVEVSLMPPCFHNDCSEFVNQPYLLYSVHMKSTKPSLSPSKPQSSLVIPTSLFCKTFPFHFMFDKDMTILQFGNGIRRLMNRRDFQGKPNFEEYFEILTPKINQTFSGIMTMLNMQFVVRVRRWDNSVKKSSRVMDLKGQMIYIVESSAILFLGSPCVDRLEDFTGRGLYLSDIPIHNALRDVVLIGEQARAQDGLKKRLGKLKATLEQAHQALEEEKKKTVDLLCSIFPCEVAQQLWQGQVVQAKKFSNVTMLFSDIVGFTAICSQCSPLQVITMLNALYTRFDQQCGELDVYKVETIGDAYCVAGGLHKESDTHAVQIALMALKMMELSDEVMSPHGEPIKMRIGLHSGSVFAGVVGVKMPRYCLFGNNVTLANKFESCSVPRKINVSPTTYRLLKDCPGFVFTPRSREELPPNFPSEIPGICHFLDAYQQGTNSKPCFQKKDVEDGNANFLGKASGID
Nature of the data set: Measurement of sGC activating effect in CHO-K1 cells stably expressing human sGC and mouse CNGA2. The format is cell-based. Particulars: CHO-K1 cells expressing human sGC and mouse CNGA2, Fura2 calcium readout, 10 μmol/L ODQ in assay buffer. Here is the method: Chinese Hamster ovary cells (CHO-K1 cells) modified for stably expressing human sGC α subunit and β subunit, and a mouse cyclic nucleotide gated channel (CNGA2) were used in the test.
The CHO-K1 cells stably expressing human sGC and mouse CNGA2 were cultured at 37° C. in a F-12 medium supplemented with 10% (v/v) fetal bovine serum (FBS), penicillin (100 U/mL), streptomycin (100 μg/mL), G418 (250 μg/mL), and Zeocin (250 μg/mL). The cells were suspended in a culture medium, seeded in a 96 well plate, and cultured at 37° C. for 24 hours. The cells were washed with an assay buffer 1 (140 mmol/L of sodium chloride, 5 mmol/L of potassium chloride, 0.5 mmol/L of magnesium chloride, 0.01 mmol/L of calcium chloride, 10 mmol/L of glucose, 0.4 mmol/L of magnesium sulfate, 10 mmol/L of 4-(2-hydroxyethyl)piperazine-1-yl ethanesulfonic acid, 125 μmol/L of sulfinpyrazone, pH 7.4), and then an indicator solution in which Fura2-AM as a fluorescent Ca2+ indicator is dissolved in assay buffer 1 at a concentration of 5 μmol/L was added thereto, and cultured at 37° C. for 60 minutes. The culture medium was removed, the cells were washed with assay buffer 1, the test compound solution was added thereto, and cultured at room temperature for 10 minutes. The plate was mounted on a fluorescence microplate reader (FlexStation II, available from Molecular Devices) with setting of excitation wavelengths of 340 and 380 nm and a detection wavelength of 510 nm, an intracellular calcium concentration was measured as a fluorescent intensity ratio obtained from each excitation wavelength.
In this test, the solution of the test compound was prepared by dissolving each test compound in DMSO at a concentration of 10 mmol/L, and then diluting the solution with assay buffer 2 (140 mmol/L of sodium chloride, 5 mmol/L of potassium chloride, 0.5 mmol/L of magnesium chloride, 1 mmol/L of calcium chloride, 10 mmol/L of glucose, 0.4 mmol/L of magnesium sulfate, 10 mmol/L of 4-(2-hydroxyethyl)piperazine-1-yl ethanesulfonic acid, 125 μmol/L of sulfinpyrazone, 100 μmol/L of isobutylmethylxanthine, 10 μmol/L of 1H-[1,2,4]-oxadiazole [4,3-a]quinoxaline-1-on (hereinafter, referred to as ODQ), pH 7.4), in order to adjust the concentration of 10 μmol/L for testing. As a control solution, a DMSO diluted solution was used, instead of the test compound solution.
The activity of the test compound was calculated as an increase rate (%) of the sGC activity in the test compound solution relative to the sGC activity in the control solution, by dividing a fluorescent intensity ratio in adding the test compound by a fluorescent intensity ratio of the control solution, and subtracting the sGC activity in the control solution (100%) therefrom. An EC50 value was calculated from the activity of the test compound at concentrations of 0.0001, 0.001, 0.003, 0.01, 0.03, 0.1, 1, and 10 μmol/L, using a 4 parameter losgistic model from Assay Explorer (available from Dssault Systèmes BIOVIA).

Data set [1] can be described thus: Determination of Log D value (flask shaking method). The format is physicochemical. The settings on record: pH 6.8; partition between n-octanol and second solution for the disintegration test (16th revised Japanese Pharmacopoeia), room temperature. Here is the method: More specifically, the Log D is more preferably 1.6 or more and 2.3 or less, still more preferably 1.8 or more and 2.2 or less, and particularly preferably 1.8 or more and 2.1 or less. Here, the Log D value in the present invention is a compound partition coefficient between n-octanol and a second solution of a disintegration test of the 16th revised Japanese Pharmacopoeia.
The Log D value was determined using a flask shaking method, where a test compound partition coefficient between n-octanol and the second solution for the disintegration test defined in the 16th revised Japanese Pharmacopoeia was calculated. Specifically, in a microtube containing 2 mg of the test compound, n-octanol (0.25 mL) and the second solution for the disintegration test (0.25 mL) were mixed. The tube was shaken in a multi shaker at room temperature for 60 minutes, and allowed to stand until the two phases were completely separated. In the microtube, 10 μL of an n-octanol phase was diluted with 190 μL of 85% methanol and mixed, thereby obtaining an organic phase test solution. 100 μL of the second solution phase for the disintegration test was diluted with 100 μL of 50% methanol, and mixed, thereby obtaining an aqueous phase test solution. The organic phase test solution and the aqueous phase test solution were filtered, respectively, and the concentration of the test compound in these test solutions were measured, using high performance liquid chromatography. Then, from the measured concentration and dilution rate, the Log D was calculated.
That is, the Log D of the present specification is represented by the following equation: Log D=Log10([concentration of test compound in organic phase test solution]/[concentration of test compound in aqueous phase test solution])+1 [Equation 1]
The second solution for the disintegration test herein refers to, as defined in the 16th revised Japanese Pharmacopoeia, a liquid obtained by adding to 250 mL of a 0.2 mol/L potassium dihydrogenphosphate reagent, 118 mL of a 0.2 mol/L sodium hydroxide reagent, and water for adjusting to 1000 mL volume.

SMILES strings stand for the structures.

By EC50 is commonly meant the midpoint of the concentration-response curve. What is called logD is the decadic logarithm of the distribution of all forms, ionised or not, between an organic phase and buffer at a given pH. For `N#Cc1cccc([C@H](CN(CCCCC(=O)O)Cc2ccc(C(=O)O)cc2)OCc2ccc(CCc3ccccc3)cc2)c1` [Compound No. 1, (−)-4-([N-(4-carboxybutyl)-N-[(2R)-2-(3-cyanophenyl)-2-[4-(2-phenylethyl)benzyloxy]ethyl]amino]methyl)benzoic acid], at human sGC, the EC50 was 8.8 nM. In data set [1], this compound had a pH-dependent lipophilicity (logD) of 2.03.
Consider `CC(C)(C)c1cccc(CO[C@@H](CN(CCCCC(=O)O)Cc2ccc(C(=O)O)cc2)c2cccc(Cl)c2)c1` [Compound No. 2, (−)-4-([N-[2-(3-tert-butylbenzyloxy)-(2R)-2-(3-chlorophenyl)ethyl]-N-(4-carboxybutyl)amino]methyl)benzoic acid], for which the EC50 on human sGC was 1.54 nM. The logD in data set [1] was 2.14.
Take `O=C(O)CCCCN(Cc1ccc(C(=O)O)cc1)C[C@H](OCc1ccc(CCc2ccccc2)cc1F)c1ccccc1` [Compound No. 3, (−)-4-([N-(4-carboxybutyl)-N-[(2R)-2-[2 fluoro-4-(2-phenylethyl)benzyloxy]-2-phenylethyl]amino]methyl)benzoic acid]: the EC50 on human sGC amounted to 2.35 nM. For the same compound, the log distribution coefficient (logD) in data set [1] was 1.99.
As to `O=C(O)CCCCN(Cc1ccc(C(=O)O)cc1)C[C@H](OCc1ccc(CCc2ccccc2)s1)c1ccccc1` [Compound No. 4, (−)-4-[(N-(4-carboxybutyl)-N-[(2R)-2-[5-(2-phenylethyl)thiophene-2-ylmethoxy]-2-phenylethyl]amino)methyl]benzoic acid], the EC50 at human sGC stood at 1.61 nM. Moreover, the logD in data set [1] is 1.8.
Turning to `O=C(O)CCCCN(Cc1ccc(C(=O)O)cc1)C[C@H](OCc1ccc(Oc2ccc(Cl)cc2)cc1)c1ccccc1` [Compound No. 5, (−)-4-([N-(4-carboxybutyl)-N-[(2R)-2-[4-(4-chlorophenyloxy)benzyloxy]-2-phenylethyl]amino]methyl)benzoic acid], the EC50 on human sGC was 6.49 nM. Also, the logD in data set [1] was 2.17.
On to `O=C(O)CCCCN(Cc1ccc(C(=O)O)cc1)CC(OCc1ccc(CCc2ccccc2)cc1)c1cccs1` (stereo not drawn) [Compound No. 7, ([N-(4-carboxybutyl)-N-[2-[4-(2-phenylethyl)benzyloxy]-2-(2-thienyl)ethyl]amino]methyl)benzoic acid], for which the EC50 at human sGC turned out to be 3.92 nM. Further, the logD in data set [1] amounted to 2.11.
Turning to `CC(C)(C)c1cccc(COc2ccccc2CCN(CCCCC(=O)O)[C@H]2CCCc3cc(C(=O)O)ccc32)c1` [Compound No. 9, (+)-(5S)-5-[N-[2-[2-(3-tert-butylbenzyloxy)phenyl]ethyl]-N-(4-carboxybutyl)amino]-5,6,7,8-tetrahydronaphthalene-2-carboxylic acid], the EC50 at human sGC stood at 7.09 nM. This compound also gave a logD in data set [1] of 2.09.
For the compound `CC(C)c1ccc(COc2ccccc2CCN(CCCCC(=O)O)[C@H]2CCCc3cc(C(=O)O)ccc32)cc1` [Compound No. 10, (+)-(5S)—[N-(4-carboxybutyl)-N-[2-[2-(4-isopropylbenzyloxy)phenyl]ethyl]amino]-5,6,7,8-tetrahydronaphthalene-2-carboxylic acid], on human sGC, the EC50 was 9.63 nM. The compound further displayed a logD in data set [1] of 1.88.
For `O=C(O)CCCCN(Cc1ccc(C(=O)O)cc1)C[C@H](OCc1cccc(CCc2ccccc2)c1)c1ccccc1` [Compound No. 11, (−)-4-([N-(4-carboxybutyl)-N-[(2R)-2-[3-(2-phenylethyl)benzyloxy]-2-phenylethyl]amino]methyl)benzoic acid], the EC50 on human sGC stood at 1.99 nM. The compound also gave a pH-dependent lipophilicity (logD) in data set [1] of 1.94.
In the same order, the values of `O=C(O)CCCCN(CCc1ccccc1OCc1ccc(CCc2ccccc2)cc1)[C@H]1CCc2cc(C(=O)O)ccc21` [Compound No. 12] are 11.9 nM and 1.95.
For `O=C(O)CCCCN(Cc1ccc(C(=O)O)cc1)CC(OCc1ccc(CCc2ccccc2)cc1)c1ccc(F)cc1` (stereo not drawn) [Compound No. 13, 4-([N-(4-carboxybutyl)-N-[2-(4-fluorophenyl)-2-[4-(2-phenylethyl)benzyloxy]ethyl]amino]methyl)benzoic acid], the EC50 on human sGC amounted to 26.5 nM. The same compound displayed a logD in data set [1] of 2.19.
As for `CC(C)(C)c1ccccc1COc1ccccc1CCN(CCCCC(=O)O)C1CCCc2cc(C(=O)O)ccc21` (stereo not drawn) [Compound No. 15, 5-[N-[2-[2-(2-tert-butylbenzyloxy)phenyl]ethyl]-N-(4-carboxybutyl)amino]-5,6,7,8-tetrahydronaphthalene-2-carboxylic acid], the EC50 at human sGC turned out to be 13.4 nM. In data set [1], this compound registered a pH-dependent lipophilicity (logD) of 1.95.

Source of the values: patent publication US10682323B2, “Therapeutic agent for glaucoma” (TOA EIYO LTD., priority 2016, dated 2020).
